One block for each compound: values may come before it.
What was measured:
[1] = tested on: perfused isolated rat heart; assay: Perfused isolated rat heart, ischaemia/reperfusion, DMPO spin trapping in the coronary effluents (EPR)
Experimental: The animals used are male rats of the Sprague Dawley strain (Harlan et CERJ, France) of 250-300 g) fed ad libitum. The rats are anaesthetized by an intraperitoneal injection of sodium pentobarbital (50 mg/kg of body weight). The thoracic cavity is then opened and the heart rapidly removed and immersed in perfusion liquid (Krebs-Henseleit) at 4° C. in order to stop any contraction.
The heart with fatty tissues removed is then perfused according to Langendorff's technique by aortic retrograde route at a constant pressure of 90 cm H2O. A small incision in the pulmonary artery allows the flow and measurement of the coronary effluent over time (coronary flow rate). The time required for completion of the entire operation is two to three minutes. After ablation of the left auricle, a latex cuff is inserted into the left ventricle and filled with a volume of distilled water (50-60 μl) which remains constant during the experimental protocol, connected to a pressure sensor (GOULD) and to a differentiating recorder allowing the measurement of the following haemodynamic parameters: • intraventricular diastolic pressure (Pdia) • developed pressure of left ventricle Pdev=Psystolic−Pdia • dP/dt (first derivative of the developed pressure, cardiac contractility index in this model) • cardiac frequency (F) • cardiac work calculated according to the relationship W=Pdev×F […]

[2] = Pharmacokinetics in the rat, oral and intravenous routes; type: in vivo; conditions: 500 mg/kg by oral route, suspension in corn oil, i.v. reference in cremophor/ethanol/water
Experimental: A study of pharmacokinetics with administration by oral route in suspension in corn oil and by intra-venous route in solution in cremophor/ethanol/water (5%, 10%, 85%) made it possible to calculate the bioavailability of the product. The assay of the product in the plasma is carried out by a high pressure liquid chromatography method coupled with mass spectrometry.

[3] = Oxidation of cumene to cumene hydroperoxide by oxygen with AIBN, assayed by HPLC-UV; conditions: for % of reduction of the oxidation of the cumene / Area of the signal, in relative units, of the cumene hydroperoxide: 2 equivalents of AIBN, 2 hours 45° C.
Experimental: The oxidation of cumene at atmospheric pressure and at 37° C. by oxygen is known and described in the presence of a radical initiator such as AIBN (azobisisobutyronitrile) (Blanchard H. S., J. Am. Chem. Soc. 1959, 81, 4548). A recent publication used this reaction to classify the antioxidant potential of known products such as vitamin E (which is the universal reference), BHT (butylated hydroxytoluene) and other products.
In the following experiment we reproduced the same experimental conditions as those described in the publication of Becker D. A. et al. (J. Am. Chem. Soc. 2002, 124, 4678-4684). A high pressure liquid chromatography method coupled with a UV detector was used to detect cumene hydroperoxide. The column used is an Agilent Zorbax Eclipse XDB RPC8 column (150×4.6 mm) coupled with a UV detector fixed at 254 nm. The gradient used is detailed in the following table: […]
2 ml of cumene (AcrosOrganic) and 0.5 ml of methanol are mixed, azobisisobutyronitrile (AcrosOrganic) is added (2 equivalents) and the solution taken to 45° C. in order to accelerate the chemical reaction. The cumene hydroperoxide appears over time and is assayed by the HPLC method.
The technique used made it possible to compare the appearance of the cumene hydroperoxide in the presence of an antioxidant agent such as the claimed products and vitamin E used as reference product.

[4] = Competition with DMPO for the tBuO radical, DMPO-tBuO adduct signal measured by EPR
Experimental: The nitrones trap the radical species (R.; RO.) and allow their observation by electron paramagnetic resonance (EPR) (Degray J. et al. Electron Spin Resonance, Ed N. M. Atherton, Atheaeum Press Ltd; Cambridge, 1994, 14, 246).
The incubation of the DMPO (Interchim-U2469) (20 mM) in deoxygenated toluene (Sigma-Aldrich) in the presence of the tBuO (tert-butoxyl) radical, generated by photolysis, makes it possible to identify and quantify by EPR the signal of the DMPO-tBuO radical. This signal is inhibited in the presence of an equimolar quantity of 3,5-seco-4-nor-cholestane oxime.
The EPR signal allows integration in the form of an area of the signal of the DMPO-tBuO adduct and therefore a relative quantification of this radical entity.
All the experiments were carried out on an X-band Bruker ESP300 device (9.5 GHz) at ambient temperature. The solutions were studied in a quartz EPR tube.

[5] = Chemical stability of the powder under ICH storage conditions, total impurities by GC-FID; type: physicochemical; conditions: for total impurities: powder
Experimental: These analyses were carried out using a gas chromatography method coupled with an FID detector. This method makes it possible to quantify the impurities at a level of 0.2%.

- bioavailability [2]: 6%
- change in the quality of the product ([5]; after 1 year's storage at 25° C.): No change in the quality
- change in the quality of the product ([5]; after 6 months of storage at 40° C.): No change in the quality
- total impurities ([5]; 25° C. under 60% relative humidity, T0): 0.2%
- total impurities ([5]; 25° C. under 60% relative humidity, T12 months): 0.2%
- total impurities ([5]; 40° C. under 75% relative humidity, T0): 0.2%
- total impurities ([5]; 40° C. under 75% relative humidity, T6 months): 0.2%
Compound: CC(C)CCC[C@@H](C)[C@H]1CC[C@H]2[C@@H]3CC/C(=N\O)[C@](C)(CCCO)[C@H]3CC[C@]12C [3,5-seco-4-nor-cholestan-5-one oxime-3-ol]
- extracellular production of free radical scavenging adducts (DMPO-OH) in the coronary effluents ([1]; 1 μM in Krebs buffer, DMPO 50 mM, reperfusion after ischaemia, p<0.05): large and significant reduction
- protection with respect to the vehicle (DMPO-OH adducts, FIG. 1) ([1]; 1 μM, two groups of 6 hearts): significant protection
- reduction of the oxidation of the cumene by oxygen (conclusion) [3]: approximately 40%
- % of reduction of the oxidation of the cumene ([3]; 50 μM): 25%
- Area of the signal, in relative units, of the cumene hydroperoxide ([3]; 50 μM): 300 relative units
- % of reduction of the oxidation of the cumene ([3]; 200 μM): 50%
- Area of the signal, in relative units, of the cumene hydroperoxide ([3]; 200 μM): 200 relative units
- activity compared with vitamin E ([3]; same concentrations): same order of magnitude
- % inhibition of the DMPO-tBuO radical ([4]; compound 20 mM + DMPO 20 mM, 200 s): 50%
- % inhibition of the DMPO-tBuO radical ([4]; compound 20 mM + DMPO 20 mM, 400 s): 66%
- Area of the DMPO-tBuO signal at 200 s in relative units ([4]; compound 20 mM + DMPO 20 mM, (t-BuO)2 20 mM, photolysis at 350 nm, 200 s): 3 relative units
- Area of the DMPO-tBuO signal at 400 s in relative units ([4]; compound 20 mM + DMPO 20 mM, (t-BuO)2 20 mM, photolysis at 350 nm, 400 s): 4 relative units
- effect on the DMPO-tBuO EPR signal ([4]; equimolar quantity to DMPO (20 mM), deoxygenated toluene): inhibited
- inhibition of the level of the DMPO-tBuO signal radical (conclusion) ([4]; equimolar with DMPO): ~60%
- kinetics of inhibition of the DMPO-tBuO signal (time) ([4]; rapid kinetics): less than 10 minutes

Compound: vitamin E [reference compound]
- % of reduction of the oxidation of the cumene ([3]; 100 μM): 39%
- Area of the signal, in relative units, of the cumene hydroperoxide ([3]; 100 μM): 245 relative units

Source: patent US8338488B2, “Use of at least one oxime derivative of 3,5-seco-4-nor-cholestane as antioxidants” (Trophos, priority 2007, dated 2012)
